We go through one molecule from US10413535B2, “Pharmaceutical compositions comprising an integrin ALPHA4 antagonist for use in treating ocular inflammatory conditions” (AXEROVISION, INC., priority 2015, dated 2019).

One experiment has as its target T1, Rat α4β1 (Rattus norvegicus, UniProt D3ZMQ3+P49134).
T1 construct: rat RBL-2H3 cells which express rat α4β1; endogenous in cells; host or cells: RBL-2H3 cells (rat basophilic cell line)
The experiment in a line: Saturation binding assay in RBL-2H3 cells (SPA). To be noted: [3H]GW559090, RBL-2H3 cells. The method, then:
Jurkat J6 cells (human lymphoblast cell line) were grown as a suspension culture in RPMI 1640 supplemented with FCS (10%) and glutamine (2 mM). RPMI8866 cells (human B lymphoid cell line) were grown as a suspension culture in RPMI 1640 supplemented with FCS (10%) and glutamine (2 mM). RBL-2H3 cells (rat basophilic cell line) were cultured in Eagle's MEM plus Earles salts supplemented with 2 mM L-glutamine, 1 mM sodium pyruvate, 1× non-essential amino acids, 1 mM Na pyruvate 10% heat inactivated foetal calf serum.
The assay buffer contained 50 mM HEPES, 100 mM NaCl, 1 mM MnCl2, pH 7.5 (with NaOH). WGA SPA beads were used at 1 mg/well. Cells were harvested and resuspended in assay buffer and 1 million cells were added per well in a white bottomed plate. Cold GW559090 to give a final assay concentration of 20 μM (to define nonspecific binding) or buffer alone were added and then [3H] GW559090 across a concentration range across the plate was added (nominal [3H] GW559090 concentration range was 0.01 to 200 nM). The final assay volume was 250 μL. The plate was then incubated at 37° C. for 2 h. Disintegrations were counted by scintillation (from the WGA SPA beads) in a Wallac Microbeta plate reader.
The actual amount of [3H] GW559090 added for each concentration of the saturation curve was measured by counting disintegrations per minute from a 50 μL aliquot of the label dilution range.

Experiment [1] concerns IL-1α, MMP-9, CXCL9, TGF-β1 expression. As to the kind of experiment: Inflammatory marker gene expression in cornea and conjunctiva (real time PCR), desiccating stress model. The format is in vivo, mouse. The conditions noted are these: topical 30 mg/mL, 5 days DS, vs vehicle. The protocol:
Female C57BL/6 mice, aged 6 to 8 weeks, were subjected to DS for 5 days (DS5) as described previously (de Paiva et al., 2006b; Niederkorn et al., 2006). Topical bilateral treatment with 1 eye drop per eye (2 μL volume) or subcutaneous injection (4 μL volume), 2 times per day, was initiated on day 1 concurrently with DS and continued through day 4. Treatment with the compound of formula I or dexamethasone phosphate 0.1% was compared to correspondingly treated vehicle controls. Mice were randomized to receive one of the test articles. Control mice were kept in a non-stressed (NS) environment maintained at 50-75% relative humidity without exposure to airflow or scopolamine and were not treated with test or control article. Treatment effects were assessed on corneal staining with Oregon Green Dextran (OGD); expression of inflammatory markers in ocular surface tissues by real time PCR; cell population analysis in draining cervical lymph nodes by FACS analysis; conjunctival T cell infiltration by immunohistochemistry.
Total RNA was isolated from corneal and conjunctival epithelia that was collected and pooled from 2 eyes (right and left) at each time point from untreated control mice, mice subjected to DS for 5 days (DS5), DS5 mice topically treated with the compound of formula I ([…]) and vehicle treated animals (n=7/group) using a PicoPure™ RNA Isolation Kit (Acturus Bioscience Inc, Mountain View, Calif., USA) following the manufacturer's protocol. Briefly, corneal epithelial cells were scraped and whole conjunctiva was cut and placed in 100 μL of extraction buffer and incubated at 42° C. for 30 minutes. The cell extract was loaded onto a preconditioned purified column, which was centrifuged, treated with DNase (Qiagen, Valencia, Calif., USA) and washed twice with two different wash buffers. The RNA was eluded in 12 μL of low ionic strength buffer. The RNA concentration was measured by absorption at 260 nm using a spectrophotometer (NanoDrop 2000, Thermo Scientific, Wilmington, Del., USA) and samples were stored at −80° C. until use. First-strand cDNA was synthesized from 1 μg of total RNA with random hexamers using M-MuLV reverse transcriptase (Ready-To-Go You-Prime First-Strand Beads; Amersham Pharmacia Biotech, Inc., Piscataway, N.J.) as previously described (de Paiva et al., 2006a).
A cDNA aliquot (1-4 μL) from samples was used for real time PCR in a total volume of 10 μL containing the following per reaction: 0.3 μL of gene specific Taqman probes used and 5 μL of 2× Taqman Fast PCR Master Mix, (Applied Biosystems). Real time PCR was performed on a StepOnePlus™ Real-Time PCR System (Applied Biosystems) and the parameters consisted of pre-denaturation at 95° C. for 22 sec, followed by 40 cycles of denaturation at 95° C. for 1 sec, annealing and extension at 60° C. for 20 sec. Samples and standards were assayed in duplicate. A non-template control and total RNA without retrotranscription were included in all the experiments to evaluate PCR and DNA contamination of the reagents used. The following mouse Taqman probes were used: IL-1α (Mm00439620); MMP-9 (Mm00442991); CXCL9 (Mm004434946); TGF-β1 (Mm00441724) and HPRT-1 (Mm00446968). The HPRT-1 gene was used as an endogenous reference for each reaction. The results of quantitative PCR were analyzed by the comparative CT method where target change=2-ΔΔ CT. The results were normalized by the CT value of HPRT-1 of the untreated control group (de Paiva et al., 2006b).
Due to skewed distribution of OGD data, the analysis was done on the log 10 scale to make the data more normally distributed. Log 10 OGD data was averaged across two observers and the left and right eyes. The mixed effects ANOVA model included treatment group as a fixed effect and week as a random effect. 95% and 99% confidence intervals were constructed for the disease (5 day DS vs untreated group kept in separate vivarium) and compound treatment effects (treatment vs vehicle). […]
In general terms: Real-time PCR tracks product formation cycle by cycle.

T1 sequence (D3ZMQ3 1-1036): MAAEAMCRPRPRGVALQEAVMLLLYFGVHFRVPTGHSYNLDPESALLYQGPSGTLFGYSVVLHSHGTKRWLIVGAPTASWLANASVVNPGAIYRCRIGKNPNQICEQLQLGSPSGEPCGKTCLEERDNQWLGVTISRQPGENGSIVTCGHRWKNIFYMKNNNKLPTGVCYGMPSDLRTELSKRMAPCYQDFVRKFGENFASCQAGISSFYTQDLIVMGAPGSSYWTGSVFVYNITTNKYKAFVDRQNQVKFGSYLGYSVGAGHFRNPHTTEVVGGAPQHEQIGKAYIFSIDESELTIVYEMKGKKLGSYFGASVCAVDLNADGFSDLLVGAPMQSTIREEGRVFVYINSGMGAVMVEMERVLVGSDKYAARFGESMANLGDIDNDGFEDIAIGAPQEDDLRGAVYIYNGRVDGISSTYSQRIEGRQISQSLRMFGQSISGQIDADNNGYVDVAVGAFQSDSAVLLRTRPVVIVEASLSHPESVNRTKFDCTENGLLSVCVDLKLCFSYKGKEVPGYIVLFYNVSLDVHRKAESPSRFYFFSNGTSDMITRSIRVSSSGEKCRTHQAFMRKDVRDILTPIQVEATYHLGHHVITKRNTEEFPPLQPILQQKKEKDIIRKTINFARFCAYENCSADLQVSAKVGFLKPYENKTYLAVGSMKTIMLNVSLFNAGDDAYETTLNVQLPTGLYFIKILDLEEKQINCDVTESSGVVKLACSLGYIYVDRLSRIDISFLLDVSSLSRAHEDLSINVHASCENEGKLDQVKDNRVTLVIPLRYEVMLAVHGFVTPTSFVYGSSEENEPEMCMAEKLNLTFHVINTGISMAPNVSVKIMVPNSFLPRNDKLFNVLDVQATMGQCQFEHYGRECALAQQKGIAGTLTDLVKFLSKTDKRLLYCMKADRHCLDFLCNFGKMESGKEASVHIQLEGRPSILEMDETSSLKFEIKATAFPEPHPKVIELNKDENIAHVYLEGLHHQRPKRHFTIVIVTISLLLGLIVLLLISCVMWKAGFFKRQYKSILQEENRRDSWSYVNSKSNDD
T1 sequence (P49134 21-799): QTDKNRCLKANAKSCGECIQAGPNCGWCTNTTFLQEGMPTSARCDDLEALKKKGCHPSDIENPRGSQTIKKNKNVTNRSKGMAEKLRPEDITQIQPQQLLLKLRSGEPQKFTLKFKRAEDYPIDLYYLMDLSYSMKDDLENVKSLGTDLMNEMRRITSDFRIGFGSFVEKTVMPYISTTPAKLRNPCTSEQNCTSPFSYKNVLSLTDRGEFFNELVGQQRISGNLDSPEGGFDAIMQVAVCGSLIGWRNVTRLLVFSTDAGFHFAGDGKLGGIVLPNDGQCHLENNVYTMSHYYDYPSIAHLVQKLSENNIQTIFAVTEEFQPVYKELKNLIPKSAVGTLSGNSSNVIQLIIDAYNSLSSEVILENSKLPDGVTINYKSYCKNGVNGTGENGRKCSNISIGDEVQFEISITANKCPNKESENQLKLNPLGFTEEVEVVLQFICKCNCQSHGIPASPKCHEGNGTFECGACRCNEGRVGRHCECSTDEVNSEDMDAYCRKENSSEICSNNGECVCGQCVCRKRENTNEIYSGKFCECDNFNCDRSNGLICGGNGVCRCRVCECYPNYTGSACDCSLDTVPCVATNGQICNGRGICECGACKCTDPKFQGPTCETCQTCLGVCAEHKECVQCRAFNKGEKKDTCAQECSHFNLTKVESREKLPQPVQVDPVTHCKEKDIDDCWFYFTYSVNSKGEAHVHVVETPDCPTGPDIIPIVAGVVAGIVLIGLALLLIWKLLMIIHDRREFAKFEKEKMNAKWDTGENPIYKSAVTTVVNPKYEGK

In turn, `Cc1ccccc1OCC(=O)N[C@@H](CC(C)C)C(=O)N[C@@H](Cc1ccc(OC(=O)N2CCC(C(N)=O)CC2)cc1)C(=O)O` [GW559090, (2S)-3-[4-({[4-(Aminocarbonyl)-1-piperidinyl]carbonyl}oxy)phenyl]-2-[((2S)-4-methyl-2-{[2-(2-methylphenoxy)acetyl]amino}pentanoyl)amino]propanoic acid] gave a dissociation constant (Kd) on Rat α4β1 of 1.04 nM. In experiment [1], the “CXCL9 transcripts in cornea” value was “significant decrease”, the “CXCL-9 expression in conjunctiva” value is “no change”, the “IL-1α expression in conjunctiva” value is recorded as “no change” and the “IL-1α transcripts in cornea” value is “significant decrease”. In experiment [1], the “MMP-9 expression in conjunctiva” value is recorded as “no change”, the “MMP-9 transcripts in cornea” value was “significant decrease”, the “TGF-β1 expression in conjunctiva” value is recorded as “significant reduction” and the “TGF-β1 transcripts in cornea” value is “significant decrease”.

Broadly, the Kd is the equilibrium constant for the complex coming apart.
